From patent publication US11427558B1, “Indazoles and azaindazoles as LRRK2 inhibitors” (ESCAPE Bio, Inc., priority 2019, dated 2022) come the findings set out here.

In test [1] the target is Recombinant wild type LRRK2 protein (Homo sapiens (Human), UniProt Q5S007). The test is described as follows: LRRK2 kinase activity, LanthaScreen TR-FRET assay (wild type). The following applies: LRRKtide 400 nM, 25 μM ATP, 60 min; read-out: LRRK2 WT IC50. Format: biochemical. In a few lines:
(§1)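 Recombinant human wild-type or G2019S LRRK2 phosphorylated fluorescein-labelled LRRKtide (ERM-based) with ATP and serially diluted compound for 60 min at room temperature.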
(In general: In TR-FRET formats the signal depends on donor and acceptor labels being close together.)

The target in test [2] is Recombinant G2019S-LRRK2 protein (Homo sapiens (Human), UniProt Q5S007, G2019S). The test is described as follows: LRRK2 kinase activity, LanthaScreen TR-FRET assay (G2019S). Format: biochemical. As to conditions: LRRKtide 400 nM, 25 μM ATP, 60 min. In a few lines: as §1

Where only a bound is given, the exact number is not on record here.

Chain of Recombinant wild type LRRK2 protein (Q5S007 whole entry): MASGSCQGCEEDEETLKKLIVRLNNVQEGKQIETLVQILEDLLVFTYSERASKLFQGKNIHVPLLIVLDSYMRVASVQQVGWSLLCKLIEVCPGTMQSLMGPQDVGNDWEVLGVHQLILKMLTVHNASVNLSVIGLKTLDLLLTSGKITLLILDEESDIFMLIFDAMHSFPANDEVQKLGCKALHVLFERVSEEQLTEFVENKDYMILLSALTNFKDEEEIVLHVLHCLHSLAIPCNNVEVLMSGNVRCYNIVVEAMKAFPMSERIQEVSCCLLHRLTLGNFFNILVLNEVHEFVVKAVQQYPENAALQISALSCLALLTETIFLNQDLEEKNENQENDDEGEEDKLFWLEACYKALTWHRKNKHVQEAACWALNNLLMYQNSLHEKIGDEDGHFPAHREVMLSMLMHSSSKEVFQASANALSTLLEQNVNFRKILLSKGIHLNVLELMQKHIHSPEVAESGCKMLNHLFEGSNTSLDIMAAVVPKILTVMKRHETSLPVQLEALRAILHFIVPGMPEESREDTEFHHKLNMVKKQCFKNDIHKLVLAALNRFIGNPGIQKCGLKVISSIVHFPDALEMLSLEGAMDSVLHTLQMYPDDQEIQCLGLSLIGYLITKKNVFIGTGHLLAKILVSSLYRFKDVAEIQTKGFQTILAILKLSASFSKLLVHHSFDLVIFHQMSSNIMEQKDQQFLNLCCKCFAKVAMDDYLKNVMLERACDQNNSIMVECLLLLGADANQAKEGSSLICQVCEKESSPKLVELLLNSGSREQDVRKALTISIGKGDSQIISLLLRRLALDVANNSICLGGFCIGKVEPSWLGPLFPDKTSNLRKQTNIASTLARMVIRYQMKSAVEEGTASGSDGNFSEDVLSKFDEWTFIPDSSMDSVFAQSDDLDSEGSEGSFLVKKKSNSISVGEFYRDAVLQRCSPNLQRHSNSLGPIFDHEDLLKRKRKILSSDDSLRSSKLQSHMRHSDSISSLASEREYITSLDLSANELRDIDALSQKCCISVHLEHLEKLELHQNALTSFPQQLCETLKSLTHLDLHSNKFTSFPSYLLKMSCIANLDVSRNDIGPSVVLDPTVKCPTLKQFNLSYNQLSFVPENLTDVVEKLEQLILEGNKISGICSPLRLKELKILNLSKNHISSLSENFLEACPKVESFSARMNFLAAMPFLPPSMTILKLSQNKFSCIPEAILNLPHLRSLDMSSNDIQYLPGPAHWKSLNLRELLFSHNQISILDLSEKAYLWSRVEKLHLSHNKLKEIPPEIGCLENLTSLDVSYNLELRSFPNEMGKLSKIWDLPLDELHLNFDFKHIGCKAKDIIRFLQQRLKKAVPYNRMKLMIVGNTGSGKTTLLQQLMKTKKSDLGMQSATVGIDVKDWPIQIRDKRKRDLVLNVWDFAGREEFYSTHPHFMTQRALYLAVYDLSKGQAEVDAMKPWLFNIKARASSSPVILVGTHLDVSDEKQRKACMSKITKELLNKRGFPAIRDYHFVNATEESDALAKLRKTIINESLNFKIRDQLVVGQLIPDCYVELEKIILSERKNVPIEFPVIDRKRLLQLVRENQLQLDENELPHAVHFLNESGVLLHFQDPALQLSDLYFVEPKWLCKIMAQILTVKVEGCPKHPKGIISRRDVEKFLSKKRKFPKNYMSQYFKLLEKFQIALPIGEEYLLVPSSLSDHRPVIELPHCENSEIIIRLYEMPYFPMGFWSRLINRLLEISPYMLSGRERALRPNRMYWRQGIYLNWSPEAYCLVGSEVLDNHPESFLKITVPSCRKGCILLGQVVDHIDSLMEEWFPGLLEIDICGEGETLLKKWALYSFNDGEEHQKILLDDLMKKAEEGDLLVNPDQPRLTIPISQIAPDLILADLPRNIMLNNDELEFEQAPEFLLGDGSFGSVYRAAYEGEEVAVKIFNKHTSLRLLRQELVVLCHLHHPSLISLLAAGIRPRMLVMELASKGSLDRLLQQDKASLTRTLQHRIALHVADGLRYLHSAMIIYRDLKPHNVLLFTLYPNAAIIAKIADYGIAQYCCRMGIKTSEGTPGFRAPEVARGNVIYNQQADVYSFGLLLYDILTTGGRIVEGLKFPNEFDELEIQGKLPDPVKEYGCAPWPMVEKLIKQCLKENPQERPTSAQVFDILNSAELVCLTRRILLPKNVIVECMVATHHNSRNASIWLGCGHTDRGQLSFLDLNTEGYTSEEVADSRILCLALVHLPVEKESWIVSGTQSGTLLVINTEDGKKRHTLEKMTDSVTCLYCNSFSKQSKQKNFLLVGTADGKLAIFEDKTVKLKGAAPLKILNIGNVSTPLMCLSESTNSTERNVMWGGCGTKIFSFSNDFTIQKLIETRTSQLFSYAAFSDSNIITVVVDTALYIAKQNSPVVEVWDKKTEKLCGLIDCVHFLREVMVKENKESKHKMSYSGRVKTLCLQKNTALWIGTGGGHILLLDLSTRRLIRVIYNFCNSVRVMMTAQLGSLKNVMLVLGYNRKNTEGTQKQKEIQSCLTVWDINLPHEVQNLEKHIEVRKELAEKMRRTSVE
Chain of Recombinant G2019S-LRRK2 protein (Q5S007 whole entry G2019S): as the sequence (Q5S007 whole entry) above, with G2019S counted along it

As a reminder, the IC50 is the concentration that inhibits the measured activity by half. On to `Cc1c(C#N)nn(C)c1C(=O)Nc1ccc2[nH]nc(-c3cnoc3)c2c1` [Example 196, 3-Cyano-N-(3-(isoxazol-4-yl)-1H-indazol-5-yl)-1,4-dimethyl-1H-pyrazole-5-carboxamide], for which the IC50 was 100 to 1000 nM in test [1] and less than 100 nM in test [2].
Turning to `Cc1coc(-c2n[nH]c3ccc(NC(=O)c4ncc(C#N)c(C)c4C)cc23)n1` [Example 197, 5-Cyano-3,4-dimethyl-N-(3-(4-methyloxazol-2-yl)-1H-indazol-5-yl)picolinamide], the IC50 in test [1] was 100 to 1000 nM; in test [2] it was less than 100 nM.
In the case of `Cc1c(C#N)cnc(C(=O)Nc2ccc3[nH]nc(-c4ncco4)c3c2)c1C` [Example 198, 5-Cyano-3,4-dimethyl-N-(3-(oxazol-2-yl)-1H-indazol-5-yl)picolinamide], the half-inhibitory concentration (IC50) in test [1] is 100 to 1000 nM; in test [2], less than 100 nM.
Turning to `N#Cc1cccc(C(=O)Nc2ccc3[nH]nc(-c4cnco4)c3c2)c1F` [Example 199, 3-Cyano-2-fluoro-N-(3-(oxazol-5-yl)-1H-indazol-5-yl)benzamide], the IC50 in test [1] and in test [2] was less than 100 nM each time.
In the case of `COc1cc(C#N)ccc1C(=O)Nc1ccc2[nH]nc(-c3cnco3)c2c1` [Example 200, 4-Cyano-2-methoxy-N-(3-(oxazol-5-yl)-1H-indazol-5-yl)benzamide], the IC50 in test [1] and in test [2] was less than 100 nM each time.
In the case of `COc1cc(C#N)cc(C)c1C(=O)Nc1ccc2[nH]nc(-c3cnn(C(F)F)c3)c2c1` [Example 201, 4-Cyano-N-(3-(1-(difluoromethyl)-1H-pyrazol-4-yl)-1H-indazol-5-yl)-2-methoxy-6-methylbenzamide], the IC50 in test [1] and in test [2] was less than 100 nM in each case.
As to `Cc1nc(C(=O)Nc2ccc3[nH]nc(-c4cnco4)c3c2)c(C)c(C)c1C#N` [Example 202, 5-Cyano-3,4,6-trimethyl-N-(3-(oxazol-5-yl)-1H-indazol-5-yl)picolinamide], the concentration for half-maximal inhibition (IC50) in test [1] and in test [2] was less than 100 nM in each case.
As to `Cc1ccc(C#N)c(F)c1C(=O)Nc1ccc2[nH]nc(-c3cnco3)c2c1` [Example 203, 3-Cyano-2-fluoro-6-methyl-N-(3-(oxazol-5-yl)-1H-indazol-5-yl)benzamide], the IC50 in test [1] and in test [2] was less than 100 nM in each case.
As for `Cc1c(C#N)cnc(C(=O)Nc2ccc3[nH]nc(-c4ccn(C(F)F)n4)c3c2)c1C` [Example 204, 5-Cyano-N-(3-(1-(difluoromethyl)-1H-pyrazol-3-yl)-1H-indazol-5-yl)-3,4-dimethylpicolinamide], the results for the IC50 in test [1] and in test [2] were 100 to 1000 nM and less than 100 nM, respectively.
In the same order, the values of `CCOc1cc(-c2n[nH]c3ccc(NC(=O)c4ncc(C#N)c(C)c4C)cc23)ccn1` [Example 205, 5-Cyano-N-(3-(2-ethoxypyridin-4-yl)-1H-indazol-5-yl)-3,4-dimethylpicolinamide] are less than 100 nM and less than 100 nM.
As to `N#Cc1cnc(C(=O)Nc2ccc3[nH]nc(-c4cnco4)c3c2)c2c1CCC2` [Example 206, 4-Cyano-N-(3-(oxazol-5-yl)-1H-indazol-5-yl)-6,7-dihydro-5H-cyclopenta[c]pyridine-1-carboxamide], the half-maximal inhibitory concentration (IC50) in test [1] is 1000 to 10000 nM; in test [2], less than 100 nM.
Take `Cc1cnc(-c2n[nH]c3ccc(NC(=O)c4ncc(C#N)c(C)c4C)cc23)o1` [Example 207, 5-Cyano-3,4-dimethyl-N-(3-(5-methyloxazol-2-yl)-1H-indazol-5-yl)picolinamide]: the IC50 in test [1] and in test [2] was less than 100 nM in each case.
Consider `COc1cc(C#N)cc(C)c1C(=O)Nc1ccc2[nH]nc(-c3cnco3)c2c1` [Example 208, 4-Cyano-2-methoxy-6-methyl-N-(3-(oxazol-5-yl)-1H-indazol-5-yl)benzamide], for which the half-inhibitory concentration (IC50) in test [1] and in test [2] was less than 100 nM each time.
For `N#Cc1cccc(C(=O)Nc2ccc3[nH]nc(-c4cnco4)c3c2)c1Cl` [Example 209, 2-chloro-3-cyano-N-(3-(oxazol-5-yl)-1H-indazol-5-yl)benzamide], the IC50 in test [1] and in test [2] was less than 100 nM throughout.
For the compound `Cc1nc(C(=O)Nc2ccc3[nH]nc(-c4cnoc4)c3c2)c(C)c(C)c1C#N` [Example 210, 5-Cyano-N-(3-(isoxazol-4-yl)-1H-indazol-5-yl)-3,4,6-trimethylpicolinamide], the half-inhibitory concentration (IC50) in test [1] and in test [2] was less than 100 nM throughout.
In the case of `COc1c(C#N)cnc(C(=O)Nc2ccc3[nH]nc(-c4cnco4)c3c2)c1C` [Example 211, 5-Cyano-4-methoxy-3-methyl-N-(3-(oxazol-5-yl)-1H-indazol-5-yl)picolinamide], the concentration for half-maximal inhibition (IC50) in test [1] and in test [2] was less than 100 nM each time.
On to `N#Cc1cccc(C(=O)Nc2ccc3[nH]nc(-c4cnco4)c3c2)c1OC(F)(F)F` [Example 212, 3-Cyano-N-(3-(oxazol-5-yl)-1H-indazol-5-yl)-2-(trifluoromethoxy)benzamide], for which the concentration for half-maximal inhibition (IC50) in test [1] and in test [2] was less than 100 nM throughout.
As for `Cc1c(C(=O)Nc2ccc3[nH]nc(-c4cnco4)c3c2)cc(C#N)c(=O)n1C` [Example 213, 5-Cyano-1,2-dimethyl-N-(3-(oxazol-5-yl)-1H-indazol-5-yl)-6-oxo-1,6-dihydropyridine-3-carboxamide], the concentration for half-maximal inhibition (IC50) in test [1] and in test [2] was less than 100 nM each time.
In the case of `C=C(C)c1c(C#N)cccc1C(=O)Nc1ccc2[nH]nc(-c3cnco3)c2c1` [Example 214, 3-Cyano-N-(3-(oxazol-5-yl)-1H-indazol-5-yl)-2-(prop-1-en-2-yl)benzamide], the IC50 in test [1] and in test [2] was less than 100 nM throughout.
In the case of `Cc1c(C#N)cnc(C(=O)Nc2ccc3[nH]nc(-c4cnn(C5CCN(C)CC5)c4)c3c2)c1C` [Example 215, 5-Cyano-3,4-dimethyl-N-(3-(1-(1-methylpiperidin-4-yl)-1H-pyrazol-4-yl)-1H-indazol-5-yl)picolinamide], the IC50 in test [1] and in test [2] was less than 100 nM in each case.
As for `Cc1c(C(=O)Nc2ccc3[nH]nc(-c4cnoc4)c3c2)nc(Cl)c(C#N)c1C` [Example 216, 6-Chloro-5-cyano-N-(3-(isoxazol-4-yl)-1H-indazol-5-yl)-3,4-dimethylpicolinamide], the IC50 in test [1] and in test [2] was less than 100 nM throughout.
Consider `Cc1c(C#N)cnc(C(=O)Nc2ccc3[nH]nc(-c4cnn(C(C)C)c4)c3c2)c1C` [Example 217, 5-Cyano-N-(3-(1-isopropyl-1H-pyrazol-4-yl)-1H-indazol-5-yl)-3,4-dimethylpicolinamide], for which the IC50 in test [1] and in test [2] was less than 100 nM throughout.
Consider `N#Cc1cnc(C(=O)Nc2ccc3[nH]nc(-c4cnoc4)c3c2)c2c1CCC2` [Example 218, 4-cyano-N-(3-(isoxazol-4-yl)-1H-indazol-5-yl)-6,7-dihydro-5H-cyclopenta[c]pyridine-1-carboxamide], for which the 50% inhibitory concentration (IC50) was 1000 to 10000 nM in test [1] and less than 100 nM in test [2].
In the case of `COc1cc(-c2n[nH]c3ccc(NC(=O)c4ncc(C#N)c(C)c4C)cc23)cc(C)n1` [Example 219, 5-Cyano-N-(3-(2-methoxy-6-methylpyridin-4-yl)-1H-indazol-5-yl)-3,4-dimethylpicolinamide], the IC50 in test [1] and in test [2] was less than 100 nM throughout.
Turning to `N#Cc1cccc(C(=O)Nc2ccc3[nH]nc(-c4cnoc4)c3c2)c1Cl` [Example 220, 2-Chloro-3-cyano-N-(3-(isoxazol-4-yl)-1H-indazol-5-yl)benzamide], the half-inhibitory concentration (IC50) in test [1] and in test [2] was less than 100 nM in each case.
Turning to `Cc1c(C#N)cnc(C(=O)Nc2ccc3[nH]nc(-c4cnn(C5COC5)c4)c3c2)c1C` [Example 221, 5-Cyano-3,4-dimethyl-N-(3-(1-(oxetan-3-yl)-1H-pyrazol-4-yl)-1H-indazol-5-yl)picolinamide], the half-maximal inhibitory concentration (IC50) in test [1] and in test [2] was less than 100 nM in each case.
As for `Cc1nc(C(=O)Nc2ccc3[nH]nc(-c4cncs4)c3c2)c(C)c(C)c1C#N` [Example 222, 5-Cyano-3,4,6-trimethyl-N-(3-(thiazol-5-yl)-1H-indazol-5-yl)picolinamide], the half-inhibitory concentration (IC50) in test [1] and in test [2] was less than 100 nM throughout.
With `Cc1c(C#N)cnc(C(=O)Nc2ccc3[nH]nc(C4CC4)c3c2)c1C` [Example 223, 5-Cyano-N-(3-cyclopropyl-1H-indazol-5-yl)-3,4-dimethylpicolinamide], the IC50 was 1000 to 10000 nM in test [1] and less than 100 nM in test [2].
In the same order, the values of `Cn1cc(C(=O)Nc2ccc3[nH]nc(-c4cnco4)c3c2)cc(C#N)c1=O` [Example 224, 5-cyano-1-methyl-N-(3-(oxazol-5-yl)-1H-indazol-5-yl)-6-oxo-1,6-dihydropyridine-3-carboxamide] are less than 100 nM and less than 100 nM.
In the same order, the values of `CC(C)c1c(C#N)cccc1C(=O)Nc1ccc2[nH]nc(-c3cnco3)c2c1` [Example 225, 3-Cyano-2-isopropyl-N-(3-(oxazol-5-yl)-1H-indazol-5-yl)benzamide] are less than 100 nM and less than 100 nM.
For the compound `COc1c(C#N)cnc(C(=O)Nc2ccc3[nH]nc(-c4cnoc4)c3c2)c1C` [Example 226, 5-Cyano-N-(3-(isoxazol-4-yl)-1H-indazol-5-yl)-4-methoxy-3-methylpicolinamide], the 50% inhibitory concentration (IC50) in test [1] and in test [2] was less than 100 nM in each case.
As for `Cc1c(C#N)cnc(C(=O)Nc2ccc3[nH]nc(-c4cncs4)c3c2)c1C` [Example 227, 5-Cyano-3,4-dimethyl-N-(3-(thiazol-5-yl)-1H-indazol-5-yl)picolinamide], the concentration for half-maximal inhibition (IC50) in test [1] and in test [2] was less than 100 nM in each case.
Consider `COc1c(C#N)ccnc1C(=O)Nc1ccc2[nH]nc(-c3cnoc3)c2c1` [Example 228, 4-Cyano-N-(3-(isoxazol-4-yl)-1H-indazol-5-yl)-3-methoxypicolinamide], for which the results for the IC50 in test [1] and in test [2] were 100 to 1000 nM and less than 100 nM, respectively.
